# Values quoted from earlier work in patent US11779563B2, “Oral cannabinoid pharmaceutical compositions and methods of treating sleep disorders” (Curio IP, LLC, priority 2021, dated 2023).
# Conditions: following smoking of the equivalent of 10-15 mg over 5-7 minutes
compound,measurement,value
"CCCCCc1cc(O)c2c(c1)OC(C)(C)[C@@H]1CCC(C)=C[C@@H]21 [THC, (−)-(6aR,10aR)-6,6,9-trimethyl-3-pentyl-6a,7,8,10a-tetrahydro-6H-benzo[c]chromen-1-ol]",peak plasma levels,around 100 μg/L
